# Experimental data published in publication PMC10165273, “Itch receptor MRGPRX4 interacts with the receptor activity–modifying proteins” (The Journal of Biological Chemistry, 2023).
# pEC50: −log10 of the molar value. Where “and” joins values, the source holds several entries; their conditions need not be identical. Identical values can stand only once. Like-named read-outs stand apart in the source and are kept apart here.
# Target: T1, MRGPRX4 + RAMP1 (Homo sapiens, UniProt Q96LA9)
# T1 construct: expressed in transfected cells; host or cells: HEK293T
# Assay: IP1 accumulation, MRGPRX4 coexpressed with RAMP1
# Assay type: cell-based
# Design: key to IP1 Basal / response to agonist, X4:ramp1.I:1 / response to agonist, X4:ramp1.I:2 / response to agonist, X4:ramp1.I:0.25 / response to agonist, X4:ramp1.I:0.5: % IP1; unstimulated mock = 0%, fully stimulated MRGPRX4 = 100%; potency: unit not given here
# Details: for EC50: read-out: potency (converted); for pEC50: read-out: IP1 EC50; for IP1 accumulation (normalized): MRGPRX4+RAMP1 1pg 1:1, Supplementary Figure 5d, 5g
# Protocol: HEK293T cells were transfected with 1 pg/cell of MRGPRX4 DNA, and the amount of DNA was kept constant at 2 pg/cell with pcDNA3.1(+) empty vector, unless otherwise specified. Twenty four hours after transfection, IP1 assay was performed as previously described ([51]). When applicable, cells were treated with 1 μM YM254890 (YM) or different concentrations of U73122 for 1 h prior to addition of agonist or buffer. After incubation for 2 h, HTRF reagents and IP1 calibration standards were added and incubated for 2 h in the dark at room temperature. Time-resolved fluorescence signals were read on the BioTek Synergy NEO-TRF Hybrid multi-mode reader (BioTek Instruments). All data were carried out in three independent experiments with three technical replicate each.
# For a homogenous transfection of MRGPRX4, a master mix of MRGPRX4 DNA was made prior to addition of the RAMP DNA. […]
# Data reduction, standard calibration, and transformation of HTRF data were performed as previously described ([51]). Normalized IP1 values were calculated relative to the unstimulated mock-transfected cells (set to 0%) and fully stimulated MRGPRX4 (alone if applicable) (set to 100%).
# [1] = Figure 4a top, DNA ratio MRGPRX4:RAMP1 1:0.5, individual replicates
# [2] = MRGPRX4 + RAMP1 0.25 pg (Fig. S3), normalized per agonist
# [3] = MRGPRX4 + RAMP1 0.5 pg (Fig. S3), normalized per agonist
# [4] = MRGPRX4 + RAMP1 1 pg (Fig. S3), normalized per agonist
# [5] = MRGPRX4 + RAMP1 2 pg (Fig. S3), normalized per agonist
# [6] = Tet-On MRGPRX4:RAMP1 Ratio 1:0.5 (Fig. S5D)
# [7] = Tet-On MRGPRX4:RAMP1 Ratio 1:0.75 (Fig. S5D)
# [8] = Tet-On MRGPRX4:RAMP1 Ratio 1:1 (Fig. S5D)
# T1 sequence (Q96LA9 whole entry): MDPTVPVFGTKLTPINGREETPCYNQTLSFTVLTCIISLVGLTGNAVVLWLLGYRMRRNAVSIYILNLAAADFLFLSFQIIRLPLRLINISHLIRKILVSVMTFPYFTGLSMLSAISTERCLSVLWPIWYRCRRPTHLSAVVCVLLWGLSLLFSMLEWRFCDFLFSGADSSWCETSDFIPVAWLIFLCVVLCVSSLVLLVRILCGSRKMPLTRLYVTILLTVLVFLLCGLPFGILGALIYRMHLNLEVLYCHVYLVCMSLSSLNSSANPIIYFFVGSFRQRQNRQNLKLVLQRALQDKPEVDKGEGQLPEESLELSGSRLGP
compound,measurement,setting,value
CC(C)[C@H]1CC[C@H](C(=O)N[C@H](Cc2ccccc2)C(=O)O)CC1 [Nateglinide],Emax,"Figure 4a bottom, DNA ratio MRGPRX4:RAMP1 1:1, MRGPRX4 alone = 100, read-out: efficacy",126%
same,EC50,"Figure 4a top, DNA ratio MRGPRX4:RAMP1 1:0.25, individual replicates",11.1 µM and 9.42 µM and 15.2 µM
same,potency,[1],5.042
same,EC50,[1],10.5 µM
same,EC50,"Figure 4a top, DNA ratio MRGPRX4:RAMP1 1:0.75, individual replicates",10.7 µM and 11.9 µM and 6.64 µM
same,EC50,"Figure 4a top, DNA ratio MRGPRX4:RAMP1 1:1, individual replicates",9.29 µM and 9.23 µM
same,"response to agonist, X4:ramp1.I:0.25","Figure 4c-f, agonist 100µM, X4:ramp1 1:0.25, MRGPRX4 = 100",94.0571 and 91.2695
same,"response to agonist, X4:ramp1.I:0.5","Figure 4c-f, agonist 100µM, X4:ramp1 1:0.5, MRGPRX4 = 100",83.4975 and 100.084
same,"response to agonist, X4:ramp1.I:1","Figure 4c-f, agonist 100µM, X4:ramp1 1:1, MRGPRX4 = 100",101.298 and 92.1048
same,"response to agonist, X4:ramp1.I:2","Figure 4c-f, agonist 100µM, X4:ramp1 1:2, MRGPRX4 = 100",90.9768 and 105.34
same,IP1 Basal,[2],19.44
same,pEC50,[2],4.94
same,Emax,"MRGPRX4 + RAMP1 0.25 pg (Fig. S3), normalized per agonist, read-out: IP1 Emax",112%
same,Emax,"MRGPRX4 + RAMP1 0.25 pg (Fig. S3), normalized per agonist, read-out: IP1 span",92.4%
same,IP1 Basal,[3],18.21
same,pEC50,[3],5.02
same,Emax,"MRGPRX4 + RAMP1 0.5 pg (Fig. S3), normalized per agonist, read-out: IP1 Emax",115%
same,Emax,"MRGPRX4 + RAMP1 0.5 pg (Fig. S3), normalized per agonist, read-out: IP1 span",96.6%
same,IP1 Basal,[4],16.52
same,pEC50,[4],5.02
same,Emax,"MRGPRX4 + RAMP1 1 pg (Fig. S3), normalized per agonist, read-out: IP1 Emax",114%
same,Emax,"MRGPRX4 + RAMP1 1 pg (Fig. S3), normalized per agonist, read-out: IP1 span",97.4%
same,IP1 Basal,[5],11.98
same,pEC50,[5],5.03
same,Emax,"MRGPRX4 + RAMP1 2 pg (Fig. S3), normalized per agonist, read-out: IP1 Emax",114%
same,Emax,"MRGPRX4 + RAMP1 2 pg (Fig. S3), normalized per agonist, read-out: IP1 span",102%
same,IP1 Basal,[6],7.772
same,pEC50,[6],5.07
same,Emax,"Tet-On MRGPRX4:RAMP1 Ratio 1:0.5 (Fig. S5D), read-out: IP1 Emax",111%
same,Emax,"Tet-On MRGPRX4:RAMP1 Ratio 1:0.5 (Fig. S5D), read-out: IP1 span",104%
same,IP1 Basal,[7],6.875
same,pEC50,[7],5.23
same,Emax,"Tet-On MRGPRX4:RAMP1 Ratio 1:0.75 (Fig. S5D), read-out: IP1 Emax",90%
same,Emax,"Tet-On MRGPRX4:RAMP1 Ratio 1:0.75 (Fig. S5D), read-out: IP1 span",83.1%
same,IP1 Basal,[8],7.220
same,pEC50,[8],5.19
same,Emax,"Tet-On MRGPRX4:RAMP1 Ratio 1:1 (Fig. S5D), read-out: IP1 Emax",89.6%
same,Emax,"Tet-On MRGPRX4:RAMP1 Ratio 1:1 (Fig. S5D), read-out: IP1 span",82.3%
same,IP1 accumulation (normalized),log [nateglinide] (M) -4,91.5442 and 89.3648 and 84.5333 and 68.7205
same,IP1 accumulation (normalized),log [nateglinide] (M) -4.69897,71.6977 and 68.3681 and 72.5875
same,IP1 accumulation (normalized),log [nateglinide] (M) -5.39794,40.9098 and 36.9736 and 38.5575
same,IP1 accumulation (normalized),log [nateglinide] (M) -6.09691,15.3098 and 13.9439 and 10.1316
same,IP1 accumulation (normalized),log [nateglinide] (M) -7.49485,9.7787 and 6.02 and 5.114
